Measured values published in PubChem BioAssay (NCI).
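All cell lines were grown in 96-well plates and treated with compound for 48 hours. TGI is the concentration that stops growth completely.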

Assays:
Assay in all cases: NCI tumour cell line growth inhibition, 48 h
[1] = tested on: 786-0 renal
[2] = tested on: HOP-92 NSCLC
[3] = tested on: HS 578T breast
[4] = tested on: K-562 leukemia
[5] = tested on: NCI-H23 lung
[6] = tested on: NCI-H460 lung
[7] = tested on: NCI-H522 lung
[8] = tested on: RPMI-8226 leukemia
[9] = tested on: SK-OV-3 ovarian
[10] = tested on: HCC-2998 colon
[11] = tested on: HOP-62 NSCLC
[12] = tested on: MALME-3M melanoma

Structure (SMILES) | TGI [1] | TGI [2] | TGI [3] | TGI [4] | TGI [5] | TGI [6] | TGI [7] | TGI [8] | TGI [9] | TGI [10] | TGI [11] | TGI [12]
COc1ccc(NC=O)c(C(O)CCNC(C)=O)c1 (configuration not stated) | > 100 µM | > 100 µM | > 100 µM | > 100 µM | > 100 µM | > 100 µM | > 100 µM | > 100 µM | > 100 µM | – | – | –
N[C@@H]1C[C@H](N)c2c(Cl)sc(Cl)c21 | > 100 µM | > 100 µM | – | > 100 µM | > 100 µM | > 100 µM | – | > 100 µM | – | > 100 µM | > 100 µM | –
COc1ccc2c(c1)c(Cc1c(C)n(C)c3ccc(OC)cc13)c(C)n2C | > 100 µM | > 100 µM | – | > 100 µM | > 100 µM | > 100 µM | > 100 µM | > 100 µM | > 100 µM | – | > 100 µM | > 100 µM
CSC1=N/C(=C\c2cccs2)C(=O)N1CN1CCCCC1 | > 100 µM | 96.5 µM | > 100 µM | > 100 µM | > 100 µM | – | – | 68.8 µM | > 100 µM | – | > 100 µM | > 100 µM
C/C(C=O)=C1\C(O)C[C@]1(C)C1CC(C)(C)CC1O (some centres not stated) | > 100 µM | > 100 µM | – | > 100 µM | > 100 µM | > 100 µM | > 100 µM | > 100 µM | – | > 100 µM | > 100 µM | > 100 µM
O=C(CCN(CCO)CCO)Nc1ccc2c(c1)C(=O)c1ccc(NC(=O)CCN(CCO)CCO)cc1C2=O | 32 µM | > 100 µM | – | 74.4 µM | > 100 µM | 22.7 µM | 19.7 µM | > 100 µM | > 100 µM | 8.52 µM | 98.3 µM | 27.9 µM
CCOc1ccc(NCC(=O)N2CC(=O)Nc3ccccc32)cc1 | > 100 µM | > 100 µM | – | > 100 µM | > 100 µM | > 100 µM | > 100 µM | > 100 µM | > 100 µM | > 100 µM | > 100 µM | > 100 µM
CCOC(=O)[C@H]1C[C@@H](C(=O)c2ccccc2)N2N=C(c3ccc(Br)cc3)C=C[C@H]12 | > 100 µM | – | > 100 µM | > 100 µM | > 100 µM | > 100 µM | – | > 100 µM | > 100 µM | > 100 µM | > 100 µM | –
CSc1nc(=S)[nH]c2n[nH]c(C)c12 | > 100 µM | – | > 100 µM | > 100 µM | > 100 µM | > 100 µM | > 100 µM | > 100 µM | > 100 µM | > 100 µM | – | > 100 µM
COc1ccc(NS(=O)CCc2ccccc2)cc1 (configuration not stated) | > 100 µM | – | > 100 µM | > 100 µM | > 100 µM | > 100 µM | > 100 µM | > 100 µM | – | > 100 µM | > 100 µM | > 100 µM
